Results published in patent publication US6096930A, “Herbicidal cyclohexane-1,3-dione derivatives and their preparation process” (Korea Research Institute of Chemical Technology, priority 1994, dated 2000).
Read-outs that look alike come from different tables or passages of the source.

How the values were obtained:
Test in all cases: Herbicidal activity for paddy test
Format in all cases: in vivo
SCPJU = conditions: for pest or weed control at 2 g/ha: 0.002 kg/ha; for pest or weed control at 8 g/ha: 0.008 kg/ha; for pest or weed control at 31 g/ha: 0.031 kg/ha; for pest or weed control at 125 g/ha: 0.125 kg/ha; for pest or weed control at 500 g/ha: 0.500 kg/ha
Method in brief: (§1)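 Sterilized sandy loam; 115 cm^2 pot; furrow planting; visual % control, 0–100.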

MOOVA = conditions: for pest or weed control at 2 g/ha: 0.002 kg/ha; for pest or weed control at 8 g/ha: 0.008 kg/ha; for pest or weed control at 31 g/ha: 0.031 kg/ha; for pest or weed control at 125 g/ha: 0.125 kg/ha; for pest or weed control at 500 g/ha: 0.500 kg/ha
Method in brief: as §1

ORYSA = conditions: for plant injury at 2 g/ha: 0.002 kg/ha; for plant injury at 8 g/ha: 0.008 kg/ha; for plant injury at 31 g/ha: 0.031 kg/ha; for plant injury at 125 g/ha: 0.125 kg/ha; for plant injury at 500 g/ha: 0.500 kg/ha
Method in brief: as §1

SAGPY = conditions: for pest or weed control at 2 g/ha: 0.002 kg/ha; for pest or weed control at 8 g/ha: 0.008 kg/ha; for pest or weed control at 31 g/ha: 0.031 kg/ha; for pest or weed control at 125 g/ha: 0.125 kg/ha; for pest or weed control at 500 g/ha: 0.500 kg/ha
Method in brief: as §1

ECHOR = conditions: for pest or weed control at 2 g/ha: 0.002 kg/ha; for pest or weed control at 8 g/ha: 0.008 kg/ha; for pest or weed control at 31 g/ha: 0.031 kg/ha; for pest or weed control at 125 g/ha: 0.125 kg/ha; for pest or weed control at 500 g/ha: 0.500 kg/ha
Method in brief: as §1

[1] = 3 Leaf, read-out: Herbicidal activity, ORYSA (3 Leaf)
[2] = seed, read-out: Herbicidal activity, ORYSA (seed)

Row | Structure (SMILES) | pest or weed control at 2 g/ha (SCPJU) | pest or weed control at 8 g/ha (SCPJU) | pest or weed control at 31 g/ha (SCPJU) | pest or weed control at 125 g/ha (SCPJU) | pest or weed control at 500 g/ha (SCPJU) | pest or weed control at 2 g/ha (MOOVA) | pest or weed control at 8 g/ha (MOOVA) | pest or weed control at 31 g/ha (MOOVA) | pest or weed control at 125 g/ha (MOOVA) | pest or weed control at 500 g/ha (MOOVA) | plant injury at 2 g/ha (ORYSA; [1]) | plant injury at 8 g/ha (ORYSA; [1]) | plant injury at 31 g/ha (ORYSA; [1]) | plant injury at 125 g/ha (ORYSA; [1]) | plant injury at 500 g/ha (ORYSA; [1]) | plant injury at 2 g/ha (ORYSA; [2]) | plant injury at 8 g/ha (ORYSA; [2]) | plant injury at 31 g/ha (ORYSA; [2]) | plant injury at 125 g/ha (ORYSA; [2]) | plant injury at 500 g/ha (ORYSA; [2]) | further results
1 | CCC(=NOC)C1=C(O)CC(c2c(C)c(C)c3c(c2C)CC(C)(C)C3)CC1=O (stereo not drawn) [Compound 1] | 0% | 0% | 0% | 0% | 0% | 0% | 0% | 0% | 0% | 0% | 0% | 0% | 0% | 90% | 100% | 0% | 70% | 100% | 100% | 100% | pest or weed control at 2 g/ha (SAGPY): 0%; pest or weed control at 8 g/ha (SAGPY): 0%; pest or weed control at 31 g/ha (SAGPY): 0%; pest or weed control at 125 g/ha (SAGPY): 0%; pest or weed control at 500 g/ha (SAGPY): 0%; pest or weed control at 2 g/ha (ECHOR): 95%; pest or weed control at 8 g/ha (ECHOR): 95%; pest or weed control at 31 g/ha (ECHOR): 100%; pest or weed control at 125 g/ha (ECHOR): 100%; pest or weed control at 500 g/ha (ECHOR): 100%
2 | CCON=C(CC)C1=C(O)CC(c2c(C)c(C)c3c(c2C)CC(C)(C)C3)CC1=O (stereo not drawn) [Compound 2] | 0% | 0% | 0% | 0% | 0% | 0% | 0% | 0% | 0% | 0% | 0% | 0% | 0% | 60% | 100% | 30% | 80% | 100% | 100% | 100% | pest or weed control at 2 g/ha (SAGPY): 0%; pest or weed control at 8 g/ha (SAGPY): 0%; pest or weed control at 31 g/ha (SAGPY): 0%; pest or weed control at 125 g/ha (SAGPY): 0%; pest or weed control at 500 g/ha (SAGPY): 0%; pest or weed control at 2 g/ha (ECHOR): 60%; pest or weed control at 8 g/ha (ECHOR): 100%; pest or weed control at 31 g/ha (ECHOR): 100%; pest or weed control at 125 g/ha (ECHOR): 100%; pest or weed control at 500 g/ha (ECHOR): 100%
3 | CCCC(=NOC)C1=C(O)CC(c2c(C)c(C)c3c(c2C)CC(C)(C)C3)CC1=O (stereo not drawn) [Compound 6] | 0% | 0% | 0% | 0% | 0% | 0% | 0% | 0% | 0% | 0% | 0% | 0% | 0% | 20% | 65% | 0% | 0% | 100% | 100% | 100% | pest or weed control at 2 g/ha (SAGPY): 0%; pest or weed control at 8 g/ha (SAGPY): 0%; pest or weed control at 31 g/ha (SAGPY): 0%; pest or weed control at 125 g/ha (SAGPY): 0%; pest or weed control at 500 g/ha (SAGPY): 40%; pest or weed control at 2 g/ha (ECHOR): 0%; pest or weed control at 8 g/ha (ECHOR): 60%; pest or weed control at 31 g/ha (ECHOR): 100%; pest or weed control at 125 g/ha (ECHOR): 100%; pest or weed control at 500 g/ha (ECHOR): 100%
